Assay results reported in ChEMBL document CHEMBL5257148, “Novel Tricyclic Compounds as KRAS Inhibitors for Treating Cancer” (ACS Med Chem Lett, 2023).

Legend:
GTPase KRas [1] = biological target: T1, GTPase KRas (Homo sapiens, UniProt P01116, G12C); test: Inhibition of KRAS G12C mutant (unknown origin) assessed as inhibition of SOS1 mediated nucleotide exchange incubated for 2 hrs in presence of GppNHp by fluorescence based analysis
GTPase KRas [2] = biological target: T1, GTPase KRas; test: Inhibition of KRAS G12C mutant in human MIA PaCa-2 cells assessed as reduction in pERK level incubated for 4 hrs by HTRF assay; format: cell-based
GTPase KRas [3] = biological target: T1, GTPase KRas; test: Inhibition of KRAS G12C mutant in human MIA PaCa-2 cells assessed as reduction in whole blood pERK level incubated for 4 hrs by HTRF assay; format: cell-based

T1 sequence (P01116 whole entry G12C): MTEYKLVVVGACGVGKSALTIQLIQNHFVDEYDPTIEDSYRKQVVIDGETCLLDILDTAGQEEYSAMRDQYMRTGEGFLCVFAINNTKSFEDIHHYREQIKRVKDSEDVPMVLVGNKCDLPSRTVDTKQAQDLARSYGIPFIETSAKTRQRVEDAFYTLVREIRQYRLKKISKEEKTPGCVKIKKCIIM

| IC50 (GTPase KRas [1]) [nM] | IC50 (GTPase KRas [2]) [nM] | IC50 (GTPase KRas [3]) [nM] | Compound |
| --- | --- | --- | --- |
| ≤ 50 | ≤ 50 | ≤ 50 | COC/C=C/C(=O)N1CC[C@H](n2nnc3c(O[C@@H](C)[C@@H]4CCCN4C)nc4c(F)c(-c5nn(C)c6ccccc56)c(C)cc4c32)C[C@H]1CC#N |
| ≤ 50 | ≤ 50 | ≤ 50 | C=C(F)C(=O)N1CC[C@H](n2nnc3c(O[C@@H](C)[C@@H]4CCCN4C)nc4c(F)c(-c5ncc(F)c6ccccc56)c(C)cc4c32)C[C@H]1CC#N |
| ≤ 50 | ≤ 50 | ≤ 50 | Cc1cc2c(nc(O[C@@H](C)[C@@H]3CCCN3C)c3nnn([C@H]4CCN(C(=O)/C=C/CF)[C@H](CC#N)C4)c32)c(F)c1-c1ccc2cnn(C)c2c1 |
| ≤ 50 | ≤ 50 | ≤ 50 | COC/C=C/C(=O)N1CC[C@H](n2nnc3c(O[C@@H](C)[C@@H]4CCCN4C)nc4c(F)c(-c5ncc(F)c6ccccc56)c(C)cc4c32)C[C@H]1CC#N |
| ≤ 50 | ≤ 50 | ≤ 50 | Cc1cccc(-c2c(C)cc3c(nc(N4CC(C)(N(C)C)C4)c4nnn([C@H]5CCN(C(=O)/C=C/CF)[C@H](CC#N)C5)c43)c2F)c1Cl |
| ≤ 50 | ≤ 50 | ≤ 50 | COC/C=C/C(=O)N1CC[C@H](n2nnc3c(O[C@@H](C)[C@@H]4CCCN4C)nc4c(F)c(-c5ccc(F)cc5)c(C)cc4c32)C[C@H]1CC#N |
